# Test results reported in the supplement of paper PMC9663587.
# Key:
# [1] = compound: CCN1CCN(Cc2ccc(Nc3ncc(F)c(-c4cc(F)c5nc(C)n(C(C)C)c5c4)n3)nc2)CC1; experiment: increase in dead-cell fraction, 72 h; higher = more death;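 note: breast cancer cell lines in 384-well plates, stained with Hoechst plus LIVE/DEAD far red dye and imaged, cells above an LDR intensity threshold counted dead, Hoechst-negative corpses included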
# Flavopiridol [2] = compound: T1, CN1CC[C@H](c2c(O)cc(O)c3c(=O)cc(-c4ccccc4Cl)oc23)[C@H](O)C1 [Flavopiridol]; experiment: as above
# THZ531 = compound: CN(C)C/C=C/C(=O)Nc1ccc(C(=O)N2CCC[C@@H](Nc3ncc(Cl)c(-c4c[nH]c5ccccc45)n3)C2)cc1 [THZ531]; experiment: GR value, 72 h; higher = faster growth (1 = untreated, <0 = killing);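 note: breast cancer and non-malignant breast epithelial lines, nine half-log doses, viable cells counted by Hoechst and LIVE/DEAD dye imaging versus time-zero plates and DMSO controls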
# Neratinib/HKI272 = compound: CCOc1cc2ncc(C#N)c(Nc3ccc(OCc4ccccn4)c(Cl)c3)c2cc1NC(=O)/C=C/CN(C)C [Neratinib/HKI272]; experiment: as above
# [3] = compound: CCN1CCN(Cc2ccc(Nc3ncc(F)c(-c4cc(F)c5nc(C)n(C(C)C)c5c4)n3)nc2)CC1; experiment: as above
# [4] = compound: CCc1cnn2c(NCc3ccc[n+]([O-])c3)cc(N3CCCC[C@H]3CCO)nc12; experiment: as above
# THZ1 = compound: CN(C)C/C=C/C(=O)Nc1ccc(C(=O)Nc2cccc(Nc3ncc(Cl)c(-c4c[nH]c5ccccc45)n3)c2)cc1 [THZ1]; experiment: as above
# Flavopiridol [5] = compound: T1, Flavopiridol; experiment: as above
# BSJ-03-123 = compound: CC(=O)c1c(C)c2cnc(Nc3ccc(N4CCN(CCOCCOCCOCCNC(=O)COc5cccc6c5C(=O)N(C5CCC(=O)NC5=O)C6=O)CC4)cn3)nc2n(C2CCCC2)c1=O [BSJ-03-123]; experiment: as above
# [6] = compound: CC(=O)c1c(C)c2cnc(Nc3ccc(N4CCNCC4)cn3)nc2n(C2CCCC2)c1=O; experiment: as above
# LEE011/Ribociclib = compound: CN(C)C(=O)c1cc2cnc(Nc3ccc(N4CCNCC4)cn3)nc2n1C1CCCC1 [LEE011/Ribociclib]; experiment: as above
# YKL-5-124 = compound: C=CC(=O)Nc1ccc(C(=O)Nc2[nH]nc3c2CN(C(=O)N[C@H](CN(C)C)c2ccccc2)C3(C)C)cc1 [YKL-5-124]; experiment: as above
cell line,measurement,setting,value
MGH312,increase in dead-cell fraction,[1]; 0.001 µM,-0.0051
same,increase in dead-cell fraction,[1]; 0.003162 µM,-0.0048
same,increase in dead-cell fraction,[1]; 0.01 µM,-0.0002
same,increase in dead-cell fraction,[1]; 0.03162 µM,-0.0029
same,increase in dead-cell fraction,[1]; 0.1 µM,-0.0075
same,increase in dead-cell fraction,[1]; 0.3162 µM,0.0016
same,increase in dead-cell fraction,[1]; 1 µM,-0.0026
same,increase in dead-cell fraction,[1]; 3.162 µM,0.0207
same,increase in dead-cell fraction,[1]; 10 µM,0.208
same,increase in dead-cell fraction,Flavopiridol [2]; 0.0001 µM,-0.004
same,increase in dead-cell fraction,Flavopiridol [2]; 0.0003162 µM,-0.0016
same,increase in dead-cell fraction,Flavopiridol [2]; 0.001 µM,-0.0079
same,increase in dead-cell fraction,Flavopiridol [2]; 0.003162 µM,0.013
same,increase in dead-cell fraction,Flavopiridol [2]; 0.01 µM,0.0083
same,increase in dead-cell fraction,Flavopiridol [2]; 0.03162 µM,-0.0027
same,increase in dead-cell fraction,Flavopiridol [2]; 0.1 µM,0.0209
same,increase in dead-cell fraction,Flavopiridol [2]; 0.3162 µM,0.249
same,increase in dead-cell fraction,Flavopiridol [2]; 1 µM,0.705
same,GR value,THZ531; 0.0001 µM,1.09 GR
same,GR value,THZ531; 0.0003162 µM,1.17 GR
same,GR value,THZ531; 0.001 µM,0.736 GR
same,GR value,THZ531; 0.003162 µM,1.06 GR
same,GR value,THZ531; 0.01 µM,1.32 GR
same,GR value,THZ531; 0.03162 µM,0.538 GR
same,GR value,THZ531; 0.1 µM,-0.928 GR
same,GR value,THZ531; 0.3162 µM,-0.947 GR
same,GR value,THZ531; 1 µM,-0.909 GR
same,GR value,Neratinib/HKI272; 0.0003162 µM,0.953 GR
same,GR value,Neratinib/HKI272; 0.001 µM,1.02 GR
same,GR value,Neratinib/HKI272; 0.003162 µM,0.997 GR
same,GR value,Neratinib/HKI272; 0.01 µM,0.787 GR
same,GR value,Neratinib/HKI272; 0.03162 µM,0.606 GR
same,GR value,Neratinib/HKI272; 0.1 µM,0.489 GR
same,GR value,Neratinib/HKI272; 0.3162 µM,0.502 GR
same,GR value,Neratinib/HKI272; 1 µM,0.238 GR
same,GR value,Neratinib/HKI272; 3.162 µM,-0.252 GR
same,GR value,[3]; 0.001 µM,1.06 GR
same,GR value,[3]; 0.003162 µM,1.17 GR
same,GR value,[3]; 0.01 µM,1.15 GR
same,GR value,[3]; 0.03162 µM,1.12 GR
same,GR value,[3]; 0.1 µM,0.975 GR
same,GR value,[3]; 0.3162 µM,1.03 GR
same,GR value,[3]; 1 µM,0.836 GR
same,GR value,[3]; 3.162 µM,0.308 GR
same,GR value,[3]; 10 µM,-0.466 GR
same,GR value,[4]; 0.0001 µM,0.917 GR
same,GR value,[4]; 0.0003162 µM,1.1 GR
same,GR value,[4]; 0.001 µM,1.09 GR
same,GR value,[4]; 0.003162 µM,1.04 GR
same,GR value,[4]; 0.01 µM,0.584 GR
same,GR value,[4]; 0.03162 µM,-0.846 GR
same,GR value,[4]; 0.1 µM,-0.927 GR
same,GR value,[4]; 0.3162 µM,-0.951 GR
same,GR value,[4]; 1 µM,-0.949 GR
same,GR value,THZ1; 0.0001 µM,1.22 GR
same,GR value,THZ1; 0.0003162 µM,0.923 GR
same,GR value,THZ1; 0.001 µM,0.962 GR
same,GR value,THZ1; 0.003162 µM,0.662 GR
same,GR value,THZ1; 0.01 µM,0.287 GR
same,GR value,THZ1; 0.03162 µM,-0.892 GR
same,GR value,THZ1; 0.1 µM,-0.905 GR
same,GR value,THZ1; 0.3162 µM,-0.92 GR
same,GR value,THZ1; 1 µM,-0.934 GR
same,GR value,Flavopiridol [5]; 0.0001 µM,1.11 GR
same,GR value,Flavopiridol [5]; 0.0003162 µM,1.12 GR
same,GR value,Flavopiridol [5]; 0.001 µM,0.95 GR
same,GR value,Flavopiridol [5]; 0.003162 µM,0.74 GR
same,GR value,Flavopiridol [5]; 0.01 µM,0.921 GR
same,GR value,Flavopiridol [5]; 0.03162 µM,0.947 GR
same,GR value,Flavopiridol [5]; 0.1 µM,0.503 GR
same,GR value,Flavopiridol [5]; 0.3162 µM,-0.521 GR
same,GR value,Flavopiridol [5]; 1 µM,-0.945 GR
same,GR value,BSJ-03-123; 0.001 µM,1.11 GR
same,GR value,BSJ-03-123; 0.003162 µM,1.25 GR
same,GR value,BSJ-03-123; 0.01 µM,1.02 GR
same,GR value,BSJ-03-123; 0.03162 µM,1.22 GR
same,GR value,BSJ-03-123; 0.1 µM,1.12 GR
same,GR value,BSJ-03-123; 0.3162 µM,0.909 GR
same,GR value,BSJ-03-123; 1 µM,0.827 GR
same,GR value,BSJ-03-123; 3.162 µM,0.933 GR
same,GR value,BSJ-03-123; 10 µM,-0.91 GR
same,GR value,[6]; 0.0003162 µM,1.2 GR
same,GR value,[6]; 0.001 µM,1.09 GR
same,GR value,[6]; 0.003162 µM,1.2 GR
same,GR value,[6]; 0.01 µM,1.04 GR
same,GR value,[6]; 0.03162 µM,1.09 GR
same,GR value,[6]; 0.1 µM,1.21 GR
same,GR value,[6]; 0.3162 µM,1.11 GR
same,GR value,[6]; 1 µM,1.18 GR
same,GR value,[6]; 3.162 µM,1.04 GR
same,GR value,LEE011/Ribociclib; 0.001 µM,1.21 GR
same,GR value,LEE011/Ribociclib; 0.003162 µM,1.13 GR
same,GR value,LEE011/Ribociclib; 0.01 µM,1.08 GR
same,GR value,LEE011/Ribociclib; 0.03162 µM,1.21 GR
same,GR value,LEE011/Ribociclib; 0.1 µM,0.945 GR
same,GR value,LEE011/Ribociclib; 0.3162 µM,0.964 GR
same,GR value,LEE011/Ribociclib; 1 µM,0.894 GR
same,GR value,LEE011/Ribociclib; 3.162 µM,0.89 GR
same,GR value,LEE011/Ribociclib; 10 µM,1.33 GR
same,GR value,YKL-5-124; 0.001 µM,0.624 GR
same,GR value,YKL-5-124; 0.003162 µM,0.384 GR
same,GR value,YKL-5-124; 0.01 µM,0.182 GR
same,GR value,YKL-5-124; 0.03162 µM,0.299 GR
same,GR value,YKL-5-124; 0.1 µM,0.104 GR
same,GR value,YKL-5-124; 0.3162 µM,0.0051 GR
same,GR value,YKL-5-124; 1 µM,-0.083 GR
same,GR value,YKL-5-124; 3.162 µM,-0.264 GR
same,GR value,YKL-5-124; 10 µM,-0.924 GR
